From patent US20080108641A1, “Compounds for treating inflammatory disorders, demyelinating disdorders and cancers” (priority 2006, published 2008)
Where two headings read alike, the source gives them in different places.

Experiments:
FLT3 = target: T1, FLT3 (Homo sapiens, UniProt P36888); experiment: SelectScreen kinase assay against FLT3; type: biochemical; conditions: ATP at 100 micromolar; for inhibition at 1 µM: 1000 nMolar, read-out: E1000 (percent inhibition at 1000 nMolar)
T1 construct: purchased Invitrogen, Inc. (SelectScreen platform)
T1 sequence (P36888 27-993): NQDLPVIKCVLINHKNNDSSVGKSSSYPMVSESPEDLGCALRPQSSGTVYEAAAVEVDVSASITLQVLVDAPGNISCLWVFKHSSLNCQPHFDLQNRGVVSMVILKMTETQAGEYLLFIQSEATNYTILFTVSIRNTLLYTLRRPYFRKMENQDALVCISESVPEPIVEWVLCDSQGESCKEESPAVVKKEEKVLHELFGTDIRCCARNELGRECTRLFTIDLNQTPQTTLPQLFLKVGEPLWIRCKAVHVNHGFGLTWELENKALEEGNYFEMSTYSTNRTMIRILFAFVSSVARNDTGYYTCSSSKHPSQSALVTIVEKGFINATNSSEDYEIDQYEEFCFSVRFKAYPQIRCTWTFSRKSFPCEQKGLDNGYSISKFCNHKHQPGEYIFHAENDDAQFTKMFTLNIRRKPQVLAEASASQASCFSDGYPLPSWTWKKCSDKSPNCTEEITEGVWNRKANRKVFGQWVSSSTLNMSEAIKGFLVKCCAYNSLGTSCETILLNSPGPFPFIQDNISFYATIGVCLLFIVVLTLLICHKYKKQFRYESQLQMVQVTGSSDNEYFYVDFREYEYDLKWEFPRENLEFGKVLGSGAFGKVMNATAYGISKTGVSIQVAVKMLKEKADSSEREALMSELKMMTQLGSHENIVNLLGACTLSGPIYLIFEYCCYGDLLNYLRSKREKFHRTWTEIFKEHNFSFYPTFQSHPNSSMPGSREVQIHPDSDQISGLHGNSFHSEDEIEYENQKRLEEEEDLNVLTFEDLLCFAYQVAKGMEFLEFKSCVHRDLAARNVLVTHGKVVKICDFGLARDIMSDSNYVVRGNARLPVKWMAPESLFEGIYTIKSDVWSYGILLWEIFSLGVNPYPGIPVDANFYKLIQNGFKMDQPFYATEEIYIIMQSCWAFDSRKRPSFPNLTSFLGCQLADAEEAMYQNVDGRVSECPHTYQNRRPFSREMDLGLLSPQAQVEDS
Protocol: The terms “IC50” and “EC50” are used interchangeably. As used herein, “EC50” refers to nMolar concentration at median percent inhibition determined by dose respose (DR) assay. As used herein, the term “E1000” refers to percent inhibition at 1000 nMolar determined by assay. EC50 was calculated based on dose response curve was fitted to 4 parameter Hill equation.
Testing of the compounds described in this invention was carried out using the SelectScreen™ platform from Invitrogen, Inc. (Carlsbad, Calif., USA) and the details of its performance are readily viewed via the web by linking to: http://www.invitrogen.com/downloads/SelectScrn_Brochure.pdf.
Briefly the approach is based on treating each specific kinase with a unique substrate and optical reporter system in the presence of ATP at 100 micromolar. In controls, the substrate is phosphorylated and a baseline optimal response is recorded.
The compounds were then re-tested by adding graded amounts of putative inhibitor which were added in 5 separate increments to generate a dose response curve. The latter is obtained by fitting to a 4 parameter Hill equation, a sigmoid saturation equation.
For the compounds of this invention, the experimental condition were as follows. The 2×FLT3/Tyr 02 peptide mixture was prepared in 50 mM HEPES pH 7.5, 0.01 BRIJ-35, 10 mM MgCl2, 1 mM EGTA. The final 10 uL kinase reaction consists of 0.6-76.0 ng FLT3 and 2 uM Tyr 02 peptide in 50 mM HEPES pH 7.5, 0.01% BRIJ-35, […], 1 mM EGTA. After 1 hour kinase reaction incubation, 5 uL of a 1:64 dilution of development reagent A was added.
EC50 and E1000 values for selected compounds of formula (IB) were measured according to the protocol described above in Example 9.

IL-10 = experiment: Mediator release, IL-10 (Con A-stimulated PBML, sandwich ELISA); type: cell-based; conditions: Homo sapiens, read-out: % inhibition of IL-10 release, read-out: % Growth Inhibition
Protocol: (§1) In this experiment, test compound and/or vehicle were preincubated with human peripheral blood mononuclear leukocyte (PBML, 1×10^6/ml) in RPMI buffer pH 7.4 for 2 hours. Concanavalin A (Con A, 20 μg/ml) was then added to stimulate the cells overnight in 5% CO2 at 37° C. IL-4 and IL-10 cytokine levels in the conditioned medium were then quantified using a sandwich ELISA kit. Compounds were screened at 10, 1, 0.1, 0.01 and 0.001 μM.

[1] = test system: T-lymphocyte cells isolated from thymus; experiment: Cell proliferation, T-Cell + Con A ([3H]thymidine incorporation); type: cell-based, balb/c mice; conditions: Mus musculus
Protocol: T-lymphocyte cells isolated from thymus of balb/c mice weighing 17±1 g were used. Test compound and/or vehicle is incubated with the cells (4×10^6/ml) in the presence of 3 μg/mL Concanavalin A (Con A) in AIM-V medium pH 7.4 at 37° C. for 24 hours. [^3H]Thymidine (120 nM) was then added for an additional overnight incubation period. Thymidine incorporation was assessed by liquid scintillation counting. Compounds were screened at 10, 1, 0.1, 0.01 and 0.001 μM.
(§2) Test compound-induced suppression of cell proliferation by 50 percent or more (≧50%) relative to vehicle control response indicates significant inhibitory activity.

[2] = test system: B-lymphocyte cells isolated from the spleen; experiment: Cell proliferation, B-Cell + LPS ([3H]thymidine incorporation); type: cell-based, balb/c mice; conditions: Mus musculus, read-out: % Growth Inhibition
Protocol: B-lymphocyte cells isolated from the spleen of balb/c mice weighing 17±1 g were used. Test compound and/or vehicle were incubated with the cells (1.5×10^6/ml) in the presence of 10 μg/ml lipopolysaccharide (LPS) in AIM-V medium pH 7.4 at 37° C. for 24 hours. [^3H]Thymidine (120 nM) was then added for an additional overnight incubation period. Thymidine incorporation was assessed by liquid scintillation counting.
as §2

[3] = test system: Experimental Autoimmune Encephalomyelitis (EAE); experiment: Acute stage Experimental Autoimmune Encephalomyelitis (EAE) model, daily dosing
Protocol: Accordingly, three randomized cohorts of guinea pigs with EAE induced by the method of Example 2, were treated, respectively, with 6 mg/kg of Symadex™ (full salt hydrate) and 0.35 mg/kg of mitoxantrone. Animals were treated daily, by intraperitoneal injection, for 15 days, starting on day 7 post immunization. Controls were treated with vehicle. We reasoned that 15 consecutive, 6 mg/kg doses of Symadex™ would represent a level of drug exposure that would be commensurate with the “20 mg/kg every 72 hours” regimen in Example 4 and consistent with a mid level exposure between the 20 mg/kg and the 40 mg/kg schedule given weekly, in Example 2. The mitoxantrone dose was selected to reflect a typical high dose given to rats or mice by daily dosing in the prior art, but allometrically scaled to the guinea pig.

IL-4 = experiment: Mediator release, IL-4 (Con A-stimulated PBML, sandwich ELISA); type: cell-based; conditions: Homo sapiens, read-out: % Growth Inhibition
Protocol: as §1

[4] = test system: arthritis induced by monoclonal antibodies raised against type II collagen, plus LPS; conditions: Lange et al., 2005; cited from earlier work

For `CCN(CC)CCNc1ccc2ncn3c4ccc(OC(C)=O)cc4c(=O)c1c23` [Compound (VIB), Acetic acid 5-(2-diethylamino-ethylamino)-6-oxo-6H-2,10b-diaza-aceanthrylen-8-yl ester], the inhibition at 1 µM (FLT3; esters of formula (IB)) was 64% and the EC50 (FLT3; esters of formula (IB)) was 0.471 µM.
With `CN(C)CCCCCNc1ccc2ncn3c4ccc5[nH]ncc5c4c(=O)c1c23` [(IIIA)] the inhibition at 1 µM (FLT3; indazoles) was 96% and the EC50 (FLT3; indazoles) was 0.016 µM.
For `O=c1c2c(NCCN3CCOCC3)ccc3ncn(c4ccc5[nH]ncc5c14)c32` [Compound (VA)], the inhibition at 1 µM (FLT3; indazoles) was 87% and the EC50 (FLT3; indazoles) was 0.032 µM.
Compound `O=C1c2c(O)ccc(O)c2C(=O)c2c(NCCNCCO)ccc(NCCNCCO)c21` [Mitoxantrone, reference compound] has an inhibition at 0.001 µM (IL-10; 1 nM) of 2%, an inhibition at 0.01 µM (IL-10; 10 nM) of 1% and an inhibition at 0.1 µM (IL-10; 0.1 μM) of 5%. The inhibition at 1 µM (IL-10; 1 μM) was 60%, the inhibition at 10 µM (IL-10; 10 μM) was 102% and the inhibition at 0.001 µM ([1]; 1 nM, read-out: % Growth Inhibition) was -1%. The inhibition at 0.01 µM ([1]; 10 nM, read-out: % Growth Inhibition) was 19%, the inhibition at 0.1 µM ([1]; 0.1 μM, read-out: % Growth Inhibition) was 80% and the inhibition at 1 µM ([1]; 1 μM, read-out: % Growth Inhibition) was 103%. It also gave an inhibition at 10 µM ([1]; 10 μM, read-out: % Growth Inhibition) of 103%, an IC50 ([1]; T-Cell + Con A proliferation, read-out: IC50) of 0.032 µM and an inhibition at 0.001 µM ([2]; 1 nM) of 18%. For the same compound, the inhibition at 0.01 µM ([2]; 10 nM) was 54%, the inhibition at 0.1 µM ([2]; 0.1 μM) was 93% and the inhibition at 1 µM ([2]; 1 μM) was 102%. For the same compound, the inhibition at 10 µM ([2]; 10 μM) was 102%, the “clinical score course (neurological impairment)” value ([3]; daily i.p. for 15 days from day 7 post immunization, Symadex 6 mg/kg, mitoxantrone 0.35 mg/kg) was “initial rise in neurological impairment is arrested” and the “statistical significance of therapeutic effect on clinical score vs control (Mann-Whitney rank-sum)” value ([3]; daily i.p. for 15 days, Symadex 6 mg/kg (p below 0.05), mitoxantrone 0.35 mg/kg) was “did not reach statistical significance”. For the same compound, the weight gain profile ([3]; daily i.p. for 15 days, Symadex 6 mg/kg, mitoxantrone 0.35 mg/kg, Symadex vs mitoxantrone p 0.034) was “impairs weight gain”, the “pathology score: meningeal inflammation (M) vs control” value ([3]; necropsy after 15 daily doses) was “statistically significant reduction” and the “pathology scores: perivascular cuffing (P), myelitis (E) and demyelination (D) vs control” value ([3]; necropsy after 15 daily doses, p value<0.05 from control) was “reducing the perivascular cuffing (P), myelitis (E) and demyelination (D)”. It also gave an inhibition at 0.001 µM (IL-4; 1 nM) of 11%, an inhibition at 0.01 µM (IL-4; 10 nM) of 13% and an inhibition at 0.1 µM (IL-4; 0.1 μM) of 18%. For the same compound, the inhibition at 1 µM (IL-4; 1 μM) was -4% and the inhibition at 10 µM (IL-4; 10 μM) was 108%.
`CN(C)CCCNc1ccc2ncn3c4ccc5[nH]ncc5c4c(=O)c1c23` [(IVA)] showed an EC50 (FLT3; indazoles) of 0.009 µM.
In the case of `CN(Cc1cnc2nc(N)nc(N)c2n1)c1ccc(C(=O)N[C@@H](CCC(=O)O)C(=O)O)cc1` [Methotrexate], the “benefit in antibody induced arthritis models” value [4] is given as “diminishing benefit”.
Compound `CN(C)CCNc1ccc2ncn3c4ccc(OC(=O)OC(C)(C)C)cc4c(=O)c1c23` [(VB)] has an inhibition at 1 µM (FLT3; esters of formula (IB)) of 92% and an EC50 (FLT3; esters of formula (IB)) of 0.096 µM.
